Reference: US20250011311A1, “AMIDO HETEROAROMATIC COMPOUNDS” (AstraZeneca AB, priority 2022, published 2025)
Where two headings read alike, the source gives them in different places.

Key:
[1] = biological target: over expressed HSD17β13 in HEK293S cells (Homo sapiens (Human), UniProt Q7Z5P4); assay: In Vitro 17bHSD13 Cell Assay; format: cell-based
Procedure, shortened: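 HEK293S cells overexpressing HSD17β13 convert estradiol to estrone; product read by LC-MS/MS (APCI, positive MRM) as AUC ratio estrone/(estrone+estradiol). Effect normalised between DMSO and maximal inhibition by a known inhibitor control; IC50 from curve fit.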

human hepatocytes = assay: Assay A: Metabolic Stability in Human Hepatocytes; format: in vitro ADME; conditions: cryopreserved human hepatocytes, 10^6 viable cells/mL, 1 μM compound, 37° C.
Method: Assay A: Metabolic Stability in Human Hepatocytes
Hepatocyte metabolic stability was determined in accordance with the method described by Jacobson et al., An optimized automated assay for determination of metabolic stability using hepatocytes: assay validation, variance component analysis, and in vivo relevance. Assay Drug Dev Technol 2007, 5 (3), 403-415. DOI: 10.1089/adt.2007.059, which is incorporated herein by reference. Cryopreserved hepatocytes at a concentration of 10^6 viable cells/mL were used. After thawing, hepatocytes were incubated for 10 min to warm to 37° C. and test compounds, dissolved in acetonitrile, were added to give a final concentration of 1 μM. At 0.5, 5, 15, 30, 45, 60, 80, 100 and 120 min, the incubation system was mixed and 20 μL aliquots were transferred at each time point to wells in a separate plate filled with 80 μL MeCN to stop the reaction. The quenching plate was then vortexed followed by centrifugation, and supernatants were analyzed by LC-MS/MS. Peak areas were determined from extracted ion chromatograms, and the in vitro intrinsic clearance (in vitro CLint, in μL/min/10^6 cells) of parent compound was calculated from the slope in the regression analysis of the natural logarithm of parent concentration vs time curve.

[2] = biological target: recombinant 17bHSD4 (M1-N311) (Homo sapiens (Human), UniProt P51659); assay: In Vitro 17bHSD4 Enzyme Assay; format: biochemical; conditions: 40 nM 17bHSD4, 0.125 mM NAD, 15 μM Estradiol, 1.5 h; NADH fluorescence; read-out: 17HSD17b4 Enzyme assay IC50
recombinant 17bHSD4 (M1-N311), sequence (P51659 1-311): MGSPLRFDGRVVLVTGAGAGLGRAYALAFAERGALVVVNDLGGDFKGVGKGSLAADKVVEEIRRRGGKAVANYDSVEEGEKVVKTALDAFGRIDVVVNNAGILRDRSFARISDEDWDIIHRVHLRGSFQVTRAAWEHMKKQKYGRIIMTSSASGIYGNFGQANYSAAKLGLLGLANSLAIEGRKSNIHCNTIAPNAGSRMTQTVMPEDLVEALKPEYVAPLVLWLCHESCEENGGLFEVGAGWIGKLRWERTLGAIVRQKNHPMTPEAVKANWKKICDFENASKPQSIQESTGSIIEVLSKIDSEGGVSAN

[3] = biological target: recombinant 17bHSD13 (N2-K300) (Homo sapiens (Human), UniProt Q7Z5P4); assay: In Vitro 17bHSD13 Enzyme Assay; format: biochemical; conditions: 80 nM 17bHSD13, 0.5 mM NAD, 20 μM Estradiol, 2.5 h; estradiol to estrone by LC-MS/MS
recombinant 17bHSD13 (N2-K300), sequence (Q7Z5P4 2-300): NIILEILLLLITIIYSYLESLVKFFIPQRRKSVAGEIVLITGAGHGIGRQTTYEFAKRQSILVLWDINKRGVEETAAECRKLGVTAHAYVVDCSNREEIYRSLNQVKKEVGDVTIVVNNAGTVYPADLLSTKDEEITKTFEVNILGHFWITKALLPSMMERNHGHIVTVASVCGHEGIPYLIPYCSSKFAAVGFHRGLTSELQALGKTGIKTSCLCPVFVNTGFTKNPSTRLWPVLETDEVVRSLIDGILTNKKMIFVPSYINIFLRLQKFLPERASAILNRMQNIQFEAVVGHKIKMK
Procedure, shortened: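 Human 17bHSD13 (N2-K300, 80 nM) with 0.5 mM NAD, 20 μM estradiol and varied compound in 50 mM Tris-Cl pH 7.4, 5 mM EDTA, 0.01% DDM. Estrone/(estrone+estradiol) ratio read by LC-MS/MS (APCI, positive MRM). Inhibition normalised to DMSO and a known-inhibitor control; IC50 from curve fit.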

CYP2C9 = CYP2C9 (Homo sapiens (Human), UniProt P11712); assay: Assay B: Cytochrome P450 Inhibition 2C9
CYP2C9, sequence (P11712 whole entry): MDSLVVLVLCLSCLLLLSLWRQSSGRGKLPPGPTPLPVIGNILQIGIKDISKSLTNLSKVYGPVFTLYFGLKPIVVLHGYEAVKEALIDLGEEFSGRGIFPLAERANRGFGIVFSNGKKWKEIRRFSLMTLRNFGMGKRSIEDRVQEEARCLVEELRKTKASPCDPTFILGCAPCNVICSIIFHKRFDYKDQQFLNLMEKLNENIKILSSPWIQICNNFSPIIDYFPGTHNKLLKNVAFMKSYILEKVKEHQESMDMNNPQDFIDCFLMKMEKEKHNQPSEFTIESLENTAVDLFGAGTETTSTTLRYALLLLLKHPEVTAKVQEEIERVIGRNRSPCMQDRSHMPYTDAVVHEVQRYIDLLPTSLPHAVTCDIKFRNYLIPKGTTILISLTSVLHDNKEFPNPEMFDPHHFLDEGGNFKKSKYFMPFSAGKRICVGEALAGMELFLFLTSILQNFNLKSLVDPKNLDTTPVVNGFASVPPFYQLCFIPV
Method: A fluorescence-based method in 96-well format was used to determine the inhibition of 2C9 (Crespi, C. L. et al., Microtiter plate assays for inhibition of human, drug-metabolizing cytochromes P450. Anal Biochem 1997, 248 (1), 188-190. DOI: 10.1006/abio.1997.2145, which is incorporated herein by reference). The recombinant human enzymes used were prepared in house, except for CYP2D6 (CYPEX LTD, Dundee, UK). Different coumarin substrates, biotransformed into fluorescent metabolites, were used as probes for each individual CYP. A fluorescence plate reader (SPECTRAMAX GEMINIXS, MOLECULAR DEVICES, Sunnyvale, California, USA) was used to measure the levels of metabolites formed. A dilution series of the test substrates was prepared at eight different concentrations. For each CYP, a mixture of the enzyme, corresponding coumarin substrate, potassium phosphate buffer pH 7.4 and water (concentrations and volumes were CYP-dependent) were added to each well in a black 96-well plate. The test substrates at different concentrations were added. After 10 min pre-incubation, the co-factor NADPH was added to initiate the reaction. After 20-50 min (CYP and substrate-dependent) the reaction was terminated by addition of trisbase/MeCN (20:80). The plates were transferred to the fluorescence plate reader where the wavelengths were set individually for the different coumarin substrates and their respective fluorescent metabolite. The responses were exported to Excel where the IC50 curves were plotted (percent inhibition versus concentration) and IC50 values calculated for each test substrate and enzyme using XL-fit.

[4] = biological target: human CB1 receptor expressed in transfected CHO cells (Homo sapiens (Human), UniProt P21554); assay: Assay C: CB1 Agonism Assay; format: cell-based; conditions: agonist activity, cAMP HTRF, read-out: Assay C: CB1 Hu CHO cAMP TRF Ag CR GMean EC50
human CB1 receptor expressed in transfected CHO cells, sequence (P21554 whole entry): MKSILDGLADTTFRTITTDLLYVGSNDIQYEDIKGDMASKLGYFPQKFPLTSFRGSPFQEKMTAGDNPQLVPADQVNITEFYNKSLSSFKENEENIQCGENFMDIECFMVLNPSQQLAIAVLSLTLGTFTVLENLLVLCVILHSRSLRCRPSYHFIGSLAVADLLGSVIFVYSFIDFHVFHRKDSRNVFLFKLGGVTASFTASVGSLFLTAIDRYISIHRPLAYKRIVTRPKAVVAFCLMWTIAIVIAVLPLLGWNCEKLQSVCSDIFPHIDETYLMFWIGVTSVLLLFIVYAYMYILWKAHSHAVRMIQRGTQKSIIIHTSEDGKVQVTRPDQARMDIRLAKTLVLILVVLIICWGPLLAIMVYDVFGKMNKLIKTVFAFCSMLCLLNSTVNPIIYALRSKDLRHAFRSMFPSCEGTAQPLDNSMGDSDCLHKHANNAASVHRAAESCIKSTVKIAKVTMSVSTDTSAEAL
Method: Assay C: CB1 Agonism Assay
Evaluation of the agonist activity of compounds at the human CB1 receptor expressed in transfected CHO cells, determined by measuring their effects on cAMP modulation using the HTRF detection method.
Thereafter, the adenylyl cyclase activator NKH 477 is added at a final concentration of 3 μM. Following 20 min incubation at 37° C., the cells are lysed and the fluorescence acceptor (D2-labeled cAMP) and fluorescence donor (anti-cAMP antibody labeled with europium cryptate) are added. After 60 min at room temperature, the fluorescence transfer is measured at gex=337 nm and gem=620 and 665 nm using a microplate reader (RUBYSTAR, BMG). The cAMP concentration is determined by dividing the signal measured at 665 nm by that measured at 620 nm (ratio). The results are expressed as a percent of the control response to 30 nM CP 55940. The standard reference agonist is CP 55940, which is tested in each experiment at several concentrations to generate a concentration-response curve from which its EC50 value is calculated.
Bibliographic reference Felder, C. C. et al., (1995), Comparison of the pharmacology and signal transduction of the human cannabinoid CB1 and CB2 receptors, Mol. Pharmacol., 48: 443, which is incorporated herein by reference.

[5] = biological target: over expressed HSD17β9 in HEK293S cells (Homo sapiens (Human), UniProt Q92781); assay: In Vitro 17bHSD9 Cell Assay; format: cell-based
over expressed HSD17β9 in HEK293S cells, sequence (Q92781 whole entry): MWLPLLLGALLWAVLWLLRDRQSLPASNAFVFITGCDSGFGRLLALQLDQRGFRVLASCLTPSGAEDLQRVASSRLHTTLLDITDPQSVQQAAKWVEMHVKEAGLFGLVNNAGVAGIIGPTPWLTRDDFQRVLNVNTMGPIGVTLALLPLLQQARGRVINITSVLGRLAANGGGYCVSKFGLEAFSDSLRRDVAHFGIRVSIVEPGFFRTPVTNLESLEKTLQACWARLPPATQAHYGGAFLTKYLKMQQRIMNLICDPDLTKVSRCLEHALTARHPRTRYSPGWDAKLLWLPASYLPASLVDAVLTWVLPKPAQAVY
Procedure, shortened: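 HEK293S cells overexpressing HSD17β9 were plated at 10K cells/well in DMEM + 10% FBS and cultured 18 h. Retinol-to-retinal conversion in media was quantified by LC-MS/MS (MRM) as retinal/(retinal + retinol). IC50 was fitted after normalisation to DMSO and full inhibition by a reference inhibitor.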

[6] = HEK293S cells over expressing HSD17β13, estradiol to estrone conversion, 18 h, LC-MS/MS, read-out: 17bHSD1713 Cell assay IC50
[7] = HEK293S cells over expressing HSD17β9, retinol to retinal conversion, 18 h, LC-MS/MS, read-out: 17bHSD9 Cell assay IC50

over expressed HSD17β13 in HEK293S cells, sequence (Q7Z5P4 20-300): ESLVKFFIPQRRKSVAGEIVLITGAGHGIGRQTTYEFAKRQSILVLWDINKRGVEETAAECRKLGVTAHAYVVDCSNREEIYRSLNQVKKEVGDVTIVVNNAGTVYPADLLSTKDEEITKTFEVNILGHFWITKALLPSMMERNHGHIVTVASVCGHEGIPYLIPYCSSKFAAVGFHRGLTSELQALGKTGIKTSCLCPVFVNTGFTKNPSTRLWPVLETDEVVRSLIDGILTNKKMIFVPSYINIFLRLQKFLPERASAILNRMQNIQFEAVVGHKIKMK

`CC(C)(C)N(Cc1ccccn1)C(=O)c1noc(-c2cc(F)c(F)c(O)c2F)c1C#N` [Example 19, N-(tert-Butyl)-4-cyano-N-(pyridin-2-ylmethyl)-5-(2,4,5-trifluoro-3-hydroxyphenyl)isoxazole-3-carboxamide] was tested, and the IC50 [1, 6] was 2.01 µM, the “Assay A: Human Heps Met Clint GMean CLint (μl/min/1E6)” value (human hepatocytes) was 4.3 μl/min/1E6 and the IC50 [2] was 19.6 µM. For the same compound, the IC50 [3] was 0.108 µM and the IC50 (CYP2C9) was 1 µM.

In the case of `N#Cc1cccc(C2CN(C(=O)c3noc(-c4cc(F)c(F)c(O)c4F)n3)C2)c1` [Example 85, 3-(1-(5-(2,4,5-Trifluoro-3-hydroxyphenyl)-1,2,4-oxadiazole-3-carbonyl)azetidin-3-yl)benzonitrile], the EC50 [4] is reported as 9.3 µM, the IC50 [1, 6] is reported as 3.38 µM and the “Assay A: Human Heps Met Clint GMean CLint (μl/min/1E6)” value (human hepatocytes) is reported as 14.1 μl/min/1E6. For the same compound, the IC50 [2] was 21.7 µM, the IC50 [3] was 0.317 µM and the IC50 (CYP2C9) was 3.4 µM.

In the case of `O=C(c1nnc(-c2ccc(F)c(O)c2)o1)N1CCOC2(CCC2)C1` [Example 90, (5-(4-Fluoro-3-hydroxyphenyl)-1,3,4-oxadiazol-2-yl)(5-oxa-8-azaspiro[3.5]nonan-8-yl)methanone], the IC50 [1, 6] is reported as 1.69 µM, the “Assay A: Human Heps Met Clint GMean CLint (μl/min/1E6)” value (human hepatocytes) is reported as greater than 300 μl/min/1E6 and the IC50 [2] is reported as greater than 50 µM. It also gave an IC50 [3] of 0.626 µM and an IC50 (CYP2C9) greater than 30 µM.

In the case of `O=C(c1noc(-c2cc(F)c(F)c(O)c2F)n1)N1CCN(c2ccccn2)CC1` [Example 58, (4-(Pyridin-2-yl)piperazin-1-yl)(5-(2,4,5-trifluoro-3-hydroxyphenyl)-1,2,4-oxadiazol-3-yl)methanone], the IC50 [1, 6] is reported as 1.08 µM, the “Assay A: Human Heps Met Clint GMean CLint (μl/min/1E6)” value (human hepatocytes) is reported as 24.6 μl/min/1E6 and the IC50 [2] is reported as 20.6 µM. For the same compound, the IC50 [3] was 0.103 µM and the IC50 (CYP2C9) was 7.3 µM.

`N#Cc1ccc(N2CCN(C(=O)c3noc(-c4cc(F)c(F)c(O)c4F)n3)CC2)cc1` [Example 83, 4-(4-(5-(2,4,5-Trifluoro-3-hydroxyphenyl)-1,2,4-oxadiazole-3-carbonyl)piperazin-1-yl)benzonitrile] was tested, and the IC50 [1, 6] was 2.88 µM, the “Assay A: Human Heps Met Clint GMean CLint (μl/min/1E6)” value (human hepatocytes) was 11.8 μl/min/1E6 and the IC50 [2] was 14.4 µM. It also gave an IC50 [3] of 0.102 µM and an IC50 (CYP2C9) of 6.2 µM.

With `N#CC1(c2ccccc2)CCN(C(=O)c2noc(-c3cc(F)c(F)c(O)c3F)n2)CC1` [Example 80, 4-Phenyl-1-(5-(2,4,5-trifluoro-3-hydroxyphenyl)-1,2,4-oxadiazole-3-carbonyl)piperidine-4-carbonitrile] the IC50 [5] was 8.2 µM, the IC50 [1] was 0.46 µM and the “Assay A: Human Heps Met Clint GMean CLint (μl/min/1E6)” value (human hepatocytes) was 9.8 μl/min/1E6. It also gave an IC50 [2] of 21.9 µM, an IC50 [3] of 0.111 µM and an IC50 (CYP2C9) of 3.3 µM.

In the case of `O=C(c1noc(-c2cc(F)c(F)c(O)c2F)n1)N1CC(c2ccccc2)C1` [Example 60, (3-Phenylazetidin-1-yl)(5-(2,4,5-trifluoro-3-hydroxyphenyl)-1,2,4-oxadiazol-3-yl)methanone], the IC50 [1, 6] is reported as 2.98 µM, the “Assay A: Human Heps Met Clint GMean CLint (μl/min/1E6)” value (human hepatocytes) is reported as 13.8 μl/min/1E6 and the IC50 [2] is reported as 11 µM. It also gave an IC50 [3] of 0.137 µM and an IC50 (CYP2C9) of 3.9 µM.

`N#Cc1c(C(=O)N2CCN(c3ccccn3)CC2)noc1-c1cc(F)c(F)c(O)c1F` [Example 15, 3-(4-(Pyridin-2-yl)piperazine-1-carbonyl)-5-(2,4,5-trifluoro-3-hydroxyphenyl)isoxazole-4-carbonitrile] was tested, and the IC50 [1, 6] was 0.97 µM, the “Assay A: Human Heps Met Clint GMean CLint (μl/min/1E6)” value (human hepatocytes) was 59.8 μl/min/1E6 and the IC50 [2] was 37.7 µM. The IC50 [3] was 0.489 µM and the IC50 (CYP2C9) was 2.1 µM.

For `N#Cc1ccc(C2CCN(C(=O)c3noc(-c4cc(F)c(F)c(O)c4F)n3)CC2)cc1` [Example 56, 4-(1-(5-(2,4,5-Trifluoro-3-hydroxyphenyl)-1,2,4-oxadiazole-3-carbonyl)piperidin-4-yl)benzonitrile], the IC50 [1, 6] was 1.36 µM, the “Assay A: Human Heps Met Clint GMean CLint (μl/min/1E6)” value (human hepatocytes) was 5.9 μl/min/1E6 and the IC50 [2] was 23.5 µM. It also gave an IC50 [3] of 0.142 µM and an IC50 (CYP2C9) of 5.1 µM.

With `O=C(c1noc(-c2cc(F)c(F)c(O)c2F)n1)N1CCC(OCc2ccccc2)C1` (stereo not shown) [Example 97, (3-(Benzyloxy)pyrrolidin-1-yl)(5-(2,4,5-trifluoro-3-hydroxyphenyl)-1,2,4-oxadiazol-3-yl)methanone] the IC50 [1, 6] was 0.89 µM, the “Assay A: Human Heps Met Clint GMean CLint (μl/min/1E6)” value (human hepatocytes) was 46.6 μl/min/1E6 and the IC50 [2] was 26.2 µM. It also gave an IC50 [3] of 0.122 µM and an IC50 (CYP2C9) of 1.8 µM.

With `N#Cc1c(C(=O)N2CC[C@@H](c3ccc(Cl)cc3)C2)noc1-c1cc(F)c(F)c(O)c1F` [Example 21, (S)-3-(3-(4-Chlorophenyl)pyrrolidine-1-carbonyl)-5-(2,4,5-trifluoro-3-hydroxyphenyl)isoxazole-4-carbonitrile] the IC50 [5, 7] was 22.6 µM, the IC50 [1, 6] was 0.66 µM and the “Assay A: Human Heps Met Clint GMean CLint (μl/min/1E6)” value (human hepatocytes) was 13.3 μl/min/1E6. It also gave an IC50 [3] of 0.032 µM and an IC50 (CYP2C9) of 0.2 µM.

`N#Cc1ccccc1N1CCN(C(=O)c2noc(-c3cc(F)c(F)c(O)c3F)n2)CC1` [Example 82, 2-(4-(5-(2,4,5-Trifluoro-3-hydroxyphenyl)-1,2,4-oxadiazole-3-carbonyl)piperazin-1-yl)benzonitrile] was tested, and the IC50 [5, 7] was greater than 50 µM, the IC50 [1, 6] was 0.45 µM and the “Assay A: Human Heps Met Clint GMean CLint (μl/min/1E6)” value (human hepatocytes) was 15.4 μl/min/1E6. It also gave an IC50 [3] of 0.062 µM and an IC50 (CYP2C9) of 4.3 µM.

With `Cn1nc(C2CC2)c2c1CCN(C(=O)c1noc(-c3cc(F)c(F)c(O)c3F)c1C#N)C2` [Example 20, 3-(3-Cyclopropyl-1-methyl-4,5,6,7-tetrahydro-1H-pyrazolo[4,3-c]pyridine-5-carbonyl)-5-(2,4,5-trifluoro-3-hydroxyphenyl)isoxazole-4-carbonitrile] the IC50 [5, 7] was 29.4 µM, the IC50 [1, 6] was 2.4 µM and the “Assay A: Human Heps Met Clint GMean CLint (μl/min/1E6)” value (human hepatocytes) was 16.8 μl/min/1E6. The IC50 [3] was 0.063 µM and the IC50 (CYP2C9) was 0.4 µM.
